These results are taken from publication PMC3892769 (Journal of medicinal chemistry, 2008).

Structures are written as SMILES.

In one assay the target is T1, human DHFR (Homo sapiens, UniProt P00374).
T1 sequence (P00374 1-187): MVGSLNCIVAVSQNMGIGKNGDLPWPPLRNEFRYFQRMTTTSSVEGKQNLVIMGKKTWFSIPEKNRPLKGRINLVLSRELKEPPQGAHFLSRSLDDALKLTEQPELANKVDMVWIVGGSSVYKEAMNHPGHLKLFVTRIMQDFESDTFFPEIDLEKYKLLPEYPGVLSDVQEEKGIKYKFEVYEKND
Briefly: Inhibition of human DHFR. In kind it is biochemical.

A further assay concerns the target human TS (Homo sapiens, UniProt P04818). Briefly: Inhibition of human TS. It counts as biochemical.
For another assay, the target named is T2, T. gondii DHFR (Toxoplasma gondii, UniProt Q07422).
T2 sequence (Q07422 1-610): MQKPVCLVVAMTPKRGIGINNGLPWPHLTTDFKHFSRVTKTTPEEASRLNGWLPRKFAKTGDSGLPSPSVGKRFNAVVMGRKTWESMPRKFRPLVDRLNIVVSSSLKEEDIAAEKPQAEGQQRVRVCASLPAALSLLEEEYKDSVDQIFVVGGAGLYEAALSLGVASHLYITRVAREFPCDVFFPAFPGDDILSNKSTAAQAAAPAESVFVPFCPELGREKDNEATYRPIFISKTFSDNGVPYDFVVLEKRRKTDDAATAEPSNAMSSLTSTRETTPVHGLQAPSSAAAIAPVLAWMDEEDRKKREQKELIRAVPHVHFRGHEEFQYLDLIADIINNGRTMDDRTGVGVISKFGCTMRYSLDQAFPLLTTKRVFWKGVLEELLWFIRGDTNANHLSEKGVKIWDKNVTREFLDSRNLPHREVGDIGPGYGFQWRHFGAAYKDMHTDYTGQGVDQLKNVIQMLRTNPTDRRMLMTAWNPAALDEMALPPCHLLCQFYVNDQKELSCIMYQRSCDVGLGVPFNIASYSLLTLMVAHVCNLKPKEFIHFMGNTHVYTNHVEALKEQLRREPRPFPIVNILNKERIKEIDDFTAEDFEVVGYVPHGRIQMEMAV
Kind of assay: biochemical.

Another assay has as its target T3, T. gondii TS (Toxoplasma gondii, UniProt Q07422).
T3 sequence (Q07422 1-610): T2 sequence (Q07422 1-610)
Kind of assay: biochemical.

The target in a further assay is E. coli TS (Escherichia coli, UniProt P0A884). Kind of assay: Inhibition of E. coli TS. It counts as biochemical.
Sequence of E. coli TS (P0A884 whole entry): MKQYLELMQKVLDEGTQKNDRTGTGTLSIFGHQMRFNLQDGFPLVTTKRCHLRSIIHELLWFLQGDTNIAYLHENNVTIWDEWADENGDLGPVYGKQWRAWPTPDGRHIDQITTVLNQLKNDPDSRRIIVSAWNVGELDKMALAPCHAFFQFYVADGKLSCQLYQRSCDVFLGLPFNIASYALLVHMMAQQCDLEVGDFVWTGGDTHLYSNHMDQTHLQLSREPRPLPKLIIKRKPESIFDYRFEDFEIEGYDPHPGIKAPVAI
The next assay concerns the target E. coli DHFR (Escherichia coli, UniProt P0ABQ4). Briefly: Inhibition of E. coli DHFR. In kind it is biochemical. Conditions: read-out: % inhibition of E. coli DHFR at the stated concentration.
Another assay deals with human FPGS. The note with it: at concentrations up to 1045 µM; cited from earlier work.

In general, IC50 refers to the concentration needed to halve the response being measured. Low readings indicate inhibition by little substance, high ones a need for much substance.

Sequence of human TS (P04818 whole entry): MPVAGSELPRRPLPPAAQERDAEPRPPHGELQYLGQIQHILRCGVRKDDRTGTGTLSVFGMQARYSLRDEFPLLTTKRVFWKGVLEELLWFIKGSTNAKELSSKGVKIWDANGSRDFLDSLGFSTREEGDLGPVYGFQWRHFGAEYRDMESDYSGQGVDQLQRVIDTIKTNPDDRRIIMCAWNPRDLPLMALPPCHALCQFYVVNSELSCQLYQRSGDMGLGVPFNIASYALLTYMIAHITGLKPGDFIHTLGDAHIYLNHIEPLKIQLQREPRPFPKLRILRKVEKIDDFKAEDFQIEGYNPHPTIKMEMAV
Sequence of E. coli DHFR (P0ABQ4 whole entry): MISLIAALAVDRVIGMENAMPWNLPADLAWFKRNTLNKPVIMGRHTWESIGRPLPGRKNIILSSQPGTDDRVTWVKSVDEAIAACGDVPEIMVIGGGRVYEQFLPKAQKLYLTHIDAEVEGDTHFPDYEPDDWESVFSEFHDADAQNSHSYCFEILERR

`COc1ccc(OC)c(Sc2c(C)sc3nc(N)[nH]c(=O)c23)c1` [Compound 8, 2-Amino-5-[(2,5-dimethoxyphenyl)sulfanyl]-6-methylthieno[2,3-d]pyrimidin-4(3H)-one]: the concentration for half-maximal inhibition (IC50) is 22 µM at human DHFR; 4.6 µM at human TS; 0.056 µM against T. gondii DHFR; > 23 µM at T. gondii TS; > 23 µM at E. coli TS. Also, the inhibition at 23 µM on T. gondii TS (read-out: % inhibition of T. gondii TS at the stated concentration) stood at 0%; at E. coli TS (read-out: % inhibition of E. coli TS at the stated concentration), 36%. For the same molecule, the inhibition at 28 µM at E. coli DHFR came out at 0%.
`Cc1[nH]c2nc(N)[nH]c(=O)c2c1Sc1ccc(C(=O)N[C@@H](CCC(=O)O)C(=O)O)cc1` [Compound 1, N-{4-[(2-amino-6-methyl-4-oxo-4,7-dihydro-3H-pyrrolo[2,3-d]pyrimidin-5-yl)thio]benzoyl}-L-glutamic acid]: the “Substrate for human FPGS” value with human FPGS was “not a substrate”.
